Experimental data: the supplement of paper PMC10627819

Assays:
[1] = system: S. aureus Newman; assay: fitness (endpoint OD595 vs no drug) (fraction); higher = more growth
Outline: (§1)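 Fitness was measured as bacterial growth in 384-well plates inoculated at OD595 0.01 (30 µl, or 55 µl for S. pneumoniae). Media were TSB, LB Lennox or CY, at 37 °C. OD595 was read every 30 min for 14 h and background-subtracted against the first reading. Fitness is OD595 at the transition into stationary phase divided by the robust mean of no-drug control wells, capped at 1.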

[2] = system: B. subtilis 168; assay: as above
Outline: as §1

[3] = system: S. aureus DSM 20231; assay: as above
Outline: as §1

[4] = system: S. aureus DSM 20231; assay: Bliss interaction score (quartile over a dose matrix) (fitness difference); higher = more antagonism (negative = synergy)
Outline: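 OD595 was read at entry into stationary phase and expressed relative to the robust mean of the no-drug wells on the same plate, capped at 1. The resulting ratio is the fitness value. The Bliss score, observed fitness minus product-based expected fitness with single-drug fitness inferred from combinations, is summarised by quartiles over technical, biological and donor/recipient replicates.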

[5] = first compound 0.5 µg/mL, partner 0.375 µg/mL
[6] = first compound 0.5 µg/mL, partner 0.75 µg/mL
[7] = first compound 0.5 µg/mL, partner 1.5 µg/mL
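Wherever Bliss interaction score (quartile over a dose matrix) is given: first quartile when negative (synergy) and third quartile when positive (antagonism).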

SMILES: CCCCCCCCCC(=O)N[C@@H](Cc1c[nH]c2ccccc12)C(=O)N[C@H](CC(N)=O)C(=O)N[C@@H](CC(=O)O)C(=O)N[C@@H]1C(=O)NCC(=O)N[C@@H](CCCN)C(=O)N[C@@H](CC(=O)O)C(=O)N[C@H](C)C(=O)N[C@@H](CC(=O)O)C(=O)NCC(=O)N[C@H](CO)C(=O)N[C@@H]([C@H](C)CC(=O)O)C(=O)N[C@@H](CC(=O)c2ccccc2N)C(=O)O[C@@H]1C [Daptomycin] + N[C@@H]1CONC1=O [Cycloserine D]
- fitness ([1]; first compound 0.125 µg/mL, partner 0.375 µg/mL): 0.979
- fitness ([1]; first compound 0.125 µg/mL, partner 0.75 µg/mL): 0.996
- fitness ([1]; first compound 0.125 µg/mL, partner 1.5 µg/mL): ≥ 1
- fitness ([1]; first compound 0.25 µg/mL, partner 0.375 µg/mL): 0.983
- fitness ([1]; first compound 0.25 µg/mL, partner 0.75 µg/mL): 0.999
- fitness ([1]; first compound 0.25 µg/mL, partner 1.5 µg/mL): ≥ 1
- fitness [1, 5]: 0.983
- fitness [1, 6]: ≥ 1
- fitness [1, 7]: 0.993
- fitness ([2]; first compound 0.125 µg/mL, partner 0.125 µg/mL): 0.962
- fitness ([2]; first compound 0.125 µg/mL, partner 0.25 µg/mL): 0.903
- fitness ([2]; first compound 0.125 µg/mL, partner 0.5 µg/mL): 0.921
- fitness ([2]; first compound 0.25 µg/mL, partner 0.125 µg/mL): 0.978
- fitness ([2]; first compound 0.25 µg/mL, partner 0.25 µg/mL): 0.923
- fitness ([2]; first compound 0.25 µg/mL, partner 0.5 µg/mL): 0.989
- fitness ([2]; first compound 0.5 µg/mL, partner 0.125 µg/mL): 0.945
- fitness ([2]; first compound 0.5 µg/mL, partner 0.25 µg/mL): 0.886
- fitness ([2]; first compound 0.5 µg/mL, partner 0.5 µg/mL): 0.874
- fitness ([2]; first compound 1 µg/mL, partner 0.125 µg/mL, one replicate): 0.784
- fitness ([2]; first compound 1 µg/mL, partner 0.25 µg/mL, one replicate): 0.758
- fitness ([2]; first compound 1 µg/mL, partner 0.5 µg/mL, one replicate): 0.737
- fitness [3, 5]: 0.964
- fitness [3, 6]: 0.996
- fitness [3, 7]: ≥ 1
- fitness ([3]; first compound 1 µg/mL, partner 0.375 µg/mL): ≥ 1
- fitness ([3]; first compound 1 µg/mL, partner 0.75 µg/mL): 0.983
- fitness ([3]; first compound 1 µg/mL, partner 1.5 µg/mL): ≥ 1
- fitness ([3]; first compound 2 µg/mL, partner 0.375 µg/mL): ≥ 1
- fitness ([3]; first compound 2 µg/mL, partner 0.75 µg/mL): 0.978
- fitness ([3]; first compound 2 µg/mL, partner 1.5 µg/mL): ≥ 1

SMILES: CCN(CC)C(=O)/C(C#N)=C/c1cc(O)c(O)c([N+](=O)[O-])c1 [Entacapone] + CC(=O)NC[C@H]1CN(c2ccc(N3CCOCC3)c(F)c2)C(=O)O1 [Linezolid]
- Bliss interaction score [4]: -0.178

SMILES: CCN(CC)C(=O)/C(C#N)=C/c1cc(O)c(O)c([N+](=O)[O-])c1 [Entacapone] + CN1C2=CC=CC=C2N=C3C1=CC=CC3=O [Pyocyanin]
- Bliss interaction score [4]: -0.283

SMILES: CCN(CC)C(=O)/C(C#N)=C/c1cc(O)c(O)c([N+](=O)[O-])c1 [Entacapone] + CO[C@@]12[C@H](COC(N)=O)C3=C(C(=O)C(C)=C(N)C3=O)N1C[C@@H]1N[C@@H]12 [MitomycinC]
- Bliss interaction score [4]: 0.176

SMILES: C[C@]12CC[C@@H]3c4ccc(O)cc4CC[C@H]3[C@@H]1CC[C@@H]2O [Estradiol] + CC1(C)S[C@@H]2[C@H](NC(=O)Cc3ccccc3)C(=O)N2[C@H]1C(=O)O [PenicillinG]
- Bliss interaction score [4]: 0.255

SMILES: C[C@]12CC[C@@H]3c4ccc(O)cc4CC[C@H]3[C@@H]1CC[C@@H]2O [Estradiol] + CC[C@H]1OC(=O)[C@H](C)C(=O)[C@H](C)[C@@H](O[C@@H]2O[C@H](C)C[C@H](N(C)C)[C@H]2O)[C@](C)(OC)C[C@@H](C)C(=O)[C@H](C)[C@H]2N(CCCCn3cnc(-c4cccnc4)c3)C(=O)O[C@]12C [Telithromycin]
- Bliss interaction score [4]: 0.268

SMILES: C[C@]12CC[C@@H]3c4ccc(O)cc4CC[C@H]3[C@@H]1CC[C@@H]2O [Estradiol] + CO[C@@]12[C@H](COC(N)=O)C3=C(C(=O)C(C)=C(N)C3=O)N1C[C@@H]1N[C@@H]12 [MitomycinC]
- Bliss interaction score [4]: 0.179

SMILES: C[C@]12CC[C@@H]3c4ccc(O)cc4CC[C@H]3[C@@H]1CC[C@@H]2O [Estradiol] + COc1cc(Cc2cnc(N)nc2N)cc(OC)c1OC [Trimethoprim]
- Bliss interaction score [4]: 0.263

SMILES: C[C@H]1COc2c(N3CCN(C)CC3)c(F)cc3c(=O)c(C(=O)O)cn1c23 [Levofloxacin] + Cc1c(Cl)cccc1Nc1ccccc1C(=O)O [Tolfenamic]
- Bliss interaction score [4]: -0.164

SMILES: CN(C)C(=O)C(CCN1CCC(O)(c2ccc(Cl)cc2)CC1)(c1ccccc1)c1ccccc1 [Loperamide] + CC(C)(O)c1ccccc1CC[C@@H](SCC1(CC(=O)O)CC1)c1cccc(/C=C/c2ccc3ccc(Cl)cc3n2)c1 [Montelukast]
- Bliss interaction score [4]: -0.28

SMILES: CN(C)C(=O)C(CCN1CCC(O)(c2ccc(Cl)cc2)CC1)(c1ccccc1)c1ccccc1 [Loperamide] + CCCSc1nc(N[C@@H]2C[C@H]2c2ccc(F)c(F)c2)c2nnn([C@@H]3C[C@H](OCCO)[C@@H](O)[C@H]3O)c2n1 [Ticagrelor]
- Bliss interaction score [4]: -0.453

SMILES: CN(C)C(=O)C(CCN1CCC(O)(c2ccc(Cl)cc2)CC1)(c1ccccc1)c1ccccc1 [Loperamide] + CCOC(=O)N1CCC(=C2c3ccc(Cl)cc3CCc3cccnc32)CC1 [Loratadine]
- Bliss interaction score [4]: -0.278

SMILES: CN(C)C(=O)C(CCN1CCC(O)(c2ccc(Cl)cc2)CC1)(c1ccccc1)c1ccccc1 [Loperamide] + CN1CCN(C2=Nc3ccccc3Oc3ccc(Cl)cc32)CC1 [Loxapine]
- Bliss interaction score [4]: 0.122

SMILES: CN(C)C(=O)C(CCN1CCC(O)(c2ccc(Cl)cc2)CC1)(c1ccccc1)c1ccccc1 [Loperamide] + CN(Cc1cnc2nc(N)nc(N)c2n1)c1ccc(C(=O)N[C@@H](CCC(=O)O)C(=O)O)cc1 [Methotrexate]
- Bliss interaction score [4]: -0.309

SMILES: CN(C)C(=O)C(CCN1CCC(O)(c2ccc(Cl)cc2)CC1)(c1ccccc1)c1ccccc1 [Loperamide] + C[C@H]1C[C@@H]2[C@H]([C@@H](O)C[C@@]3(C)[C@H]2CC[C@]3(O)C(=O)CO)[C@@]2(C)C=CC(=O)C=C12 [Methylprednisolone]
- Bliss interaction score [4]: -0.341

SMILES: CN(C)C(=O)C(CCN1CCC(O)(c2ccc(Cl)cc2)CC1)(c1ccccc1)c1ccccc1 [Loperamide] + O=C(O)Cc1cc(I)c(Oc2ccc(O)c(I)c2)c(I)c1 [Tiratricol]
- Bliss interaction score [4]: 0.751

SMILES: CN(C)C(=O)C(CCN1CCC(O)(c2ccc(Cl)cc2)CC1)(c1ccccc1)c1ccccc1 [Loperamide] + O=c1c(O)c(-c2ccc(O)c(O)c2)oc2cc(O)cc(O)c12 [Quercetin]
- Bliss interaction score [4]: 0.242

SMILES: C[C@H]1C[C@@H]2[C@H]([C@@H](O)C[C@@]3(C)[C@H]2CC[C@]3(O)C(=O)CO)[C@@]2(C)C=CC(=O)C=C12 [Methylprednisolone] + CC[C@H]1OC(=O)[C@H](C)C(=O)[C@H](C)[C@@H](O[C@@H]2O[C@H](C)C[C@H](N(C)C)[C@H]2O)[C@](C)(OC)C[C@@H](C)C(=O)[C@H](C)[C@H]2N(CCCCn3cnc(-c4cccnc4)c3)C(=O)O[C@]12C [Telithromycin]
- Bliss interaction score [4]: -0.356
